Laboratory results reported in US20210260066A1, “METHOD OF USING MEK INHIBITOR TO PREVENT RADIATION INDUCED FIBROSIS” (THOMAS JEFFERSON UNIVERSITY, priority 2018, published 2021).

How the values were obtained:
mouse lung fibroblasts = experiment: Pro-fibrotic gene expression (qPCR) in bleomycin-treated mouse lung fibroblasts; type: cell-based; details: bleomycin alone vs vehicle control
Source text: Indeed, FIGS. 1A, 1B, and 1C depict the ability of trametinib to modulate the expression of pro-fibrotic genes in mouse lung fibroblasts. The three graphs represent expression of (type I collagen and FNEDA) and αSMA. Lung fibroblasts isolated form mouse lungs were placed in cell culture and treated either with saline (control) or bleomycin dissolved in saline and 3 different concentrations of trametinib (2.5, 5 and 10 nmolar) dissolved in DMSO. After treatment with the drug, RNA was extracted and quantified by qPCR. mRNAs for type I collagen (Collal), the FNEDA and αSMA are shown. Control values in FIGS. 1 A, B, and C were set to 100%.

[1] = test system: rat peritoneal mesothelial cells; experiment: TGF-β induced mesothelial-mesenchymal transition (MMT) of rat peritoneal mesothelial cells; type: cell-based
Protocol: Isolated mesothelial cells were incubated under control conditions without either TGF-β or trametinib, with TGF-β or trametinib alone, or with both TGF-β and trametinib for five days.
These increases in gene expression of phosphor-Erk1/2, FNEDA, αSMA and p-SMAD2 (linker) were blocked by as low a concentration of trametinib as 2 nM.
The experiments in this study were approved by the Institutional Animal Care and Use Committee at Thomas Jefferson University, and were performed in accordance with the National Institutes of Health guidelines for the care and handling of laboratory animals. […]
RPMCs were lysed in ice-cold modified RIPA buffer with protease inhibitor cocktail (50 mM/L Tris-HCl, 1% NP-40, 0.25% Na-deoxycholate, 150 mM/L NaCl, 1 mM/L EDTA, 1 mmol/L phenylmethyl sulfonyl fluoride, 1 mM/L sodium orthovanadate, 1 mM/L NaF, pH 7.4). Equivalent amounts of homogenate (50 μg/well), determined by Coomassie blue assay, were separated by sodium dodecyl sulfate polyacrylamide gel electrophoresis (SDS-PAGE), transferred to either nitrocellulose or PVDF membranes, and detected by SuperSignal West Femto or Pico chemiluminescence.

C57BL/6 mice = details: mouse, in vivo
Source text: C57BL/6 mice were used to develop a consistent model of intra-abdominal adhesion formation. Mouse cecums were gently abraded to promote adhesion formation which were subsequently analyzed histologically and immunochemically to characterize the expression of pro-fibrotic genes including (αSMA and FNEDA isoform, both of which were examined immunohistochemically and by quantitative polymerase chain reaction (qPCR). Trichrome staining was used to assess collagen deposition, a major protein component found in the extracellular matrix (ECM) at adhesion sites. Consistent intra-abdominal adhesions in mice were achieved by gentle cecal abrasion with mortality rates of <10%. Adhesions were seen as early as post-operative day 1 with extensive adhesions being formed and vascularized by day 5. Expression of the FNEDA isoform first and subsequently αSMA and collagen occurred during adhesion maturation.
Equal numbers of male and female C57BL/6 mice (18-25 g, 8-10 weeks of age, Jackson Laboratories, Bar Harbor, Me.) were used in initial experiments while only male mice were used in the drug escalation studies because they sustained greater accumulations of fibrotic tissue (data not shown). […]

Row | Compound | Increase in expression of Collal mRNA (mouse lung fibroblasts) | Increase in expression of FNEDA mRNA (mouse lung fibroblasts) [%] | Increase in expression of αSMA mRNA (mouse lung fibroblasts) | Concentration blocking the increases of phosphor-Erk1/2, FNEDA, αSMA and p-SMAD2 (linker) ([1]; TGF-β-treated cells) [nM] | Effect of trametinib alone on mesothelial cells (toxicity, appearance) ([1]; trametinib alone, five days) | Wound healing of abdominal muscles and skin at the laparotomy site (C57BL/6 mice)
1 | bleomycin | more than 200% | ~150 | more than 200% | – | – | –
2 | CC(=O)Nc1cccc(-n2c(=O)n(C3CC3)c(=O)c3c(Nc4ccc(I)cc4F)n(C)c(=O)c(C)c32)c1 [trametinib] | – | – | – | ≤ 2 | no effect and no apparent toxic effects | no impairment
